Measurements as given in patent publication US20070289889A1, “Biomarkers For The Prediction Of Drug-In Duced Diarrhea” (NOVARTIS AG, priority 2003, published 2007).
“And” between values parts separate entries of the source, which are not always exact repeats. Equal entries are not always repeated.

Legend:
[1] = cited from earlier work
[2] = test system: adult patients with advanced solid tumours; test: Phase I open-label dose-escalation trial, maximum tolerated dose and diarrhoea; type: in vivo, human
Description: A group of eleven genes were identified as having statistically significant differences in expression levels when comparing the test samples to their respective baseline samples. […] These genes were identified following a […] dose-finding clinical trial, which was undertaken in which epothilone B was administered weekly to adult patients with advanced solid tumours. A clinical pharmacogenetics (CPG) analysis identified biomarker candidates for the incidence of epothilone B-induced diarrhoea. The analysis also identified genomic-based factors (such as mRNA expression profiles) that are associated with the incidence of epothilone B-induced diarrhoea.
The maximum tolerated dose (MTD) for a compound is determined using methods and materials known in the medical and pharmacological arts, for example through dose-escalation experiments. One or more patients is first treated with a low dose of the compound, typically 10% of the dose anticipated to be therapeutic based on results of in vitro cell culture experiments. The patients are observed for a period of time to determine the occurrence of toxicity. Toxicity is typically evidenced as the observation of one or more of the following symptoms: vomiting, diarrhoea, peripheral neuropathy, ataxia, neutropaenia, or elevation of liver enzymes. If no toxicity is observed, the dose is increased 2-fold, and the patients are again observed for evidence of toxicity. This cycle is repeated until a dose producing evidence of toxicity is reached. The dose immediately preceding the onset of unacceptable toxicity is taken as the […]. A determination of the MTD for epothilone B is provided above.
Clinical trial design. This clinical trial was an open-label, dose-escalation trial using a standard Phase I protocol design (3+3 design) of enrolling three-six patients per cohort to establish the maximum tolerated dose. Peripheral whole blood was collected from patients that consented to clinical pharmacogenetics analysis. Two clinical pharmacogenetics blood samples were scheduled: baseline and on Day 2 of Week 1 at hour 24. The core treatment period consisted of two nine-week cycles of weekly intravenous administrations of epothilone B as tolerated by haematologic and other toxicities. The doses of epothilone B used in this trial were 0.3, 0.5, 0.75, 1.1, 1.85, 2.5, 3.0 and 3.6 mg/m^2.
Clinical pharmacogenetics subjects used for the analysis. Epothilone B was administered to subjects as a single intravenous infusion over five minutes in a maximum volume of 20 ml either every week for up to six weeks followed by a three-week wash-out period, or every week for three weeks followed by one week without treatment. The 2.5 mg/m^2 treatment was considered to be the maximum tolerated dose (MTD). Therefore, twenty clinical pharmacogenetics participants who were in the 2.5, 3.0 and 3.6 mg/m^2 treatment groups and whose arrays met the quality standards were used. The rationale behind this decision was based on the assumption that those genes whose expression was affected by the 2.5 mg/m^2 treatment would be more pronounced in 3.0 and 3.6 mg/m^2 treatment groups.
(§1) Because there were only three subjects who experienced grade 3 diarrhoea, all fifteen subjects who experienced any grade of diarrhoea were grouped together to strengthen the statistical power of this analysis.

white blood cells [3] = test: mRNA expression profiles of white blood cells after treatment, no diarrhoea vs. diarrhoea subjects; type: in vivo, human; details: treated; for Signal Value 297_g_at (Tubulin, beta) / Signal Value 477_at (IRF5) / Signal Value 1274_s_at (CDC34) / Signal Value 33336_at (SLC4A1) / Signal Value 33759_at (BPGM) / Signal Value 37285_at (ALAS2) / Signal Value 37405_at (SELENBP1) / Signal Value 39436_at (BNIP3L): average of arrays
Description: (§2) Samples. Forty-three out of the ninety-one subjects who enrolled in the clinical trial consented to clinical pharmacogenetics analysis. For each subject, two clinical pharmacogenetics blood samples were scheduled: baseline and on Day 2 of Week 1 at hour 24. White blood cell (WBC) pellets were ficoll-hypaque separated from the whole blood by the investigator, frozen at −80° C. mRNA was extracted and profiled on the Affymetrix U95A GeneChip® platform.
(§3) mRNA expression profiling analysis. Any array with greater than 20% of genes called present by the Affymetrix MAS5 algorithm was a candidate for the analyses described herein. Affymetrix, “New statistical algorithms for monitoring gene expression on GeneChip® probe arrays.” Affymetrix Technical Notes. (2001). […] Forty-two out of the possible eighty-six arrays met the quality standards needed for analysis.
(§4) Statistical analysis. Fisher's Exact tests were performed to compare the demographics of the clinical pharmacogenetics participants to the overall trial population. An analysis of variance (ANOVA) was used to determine whether mRNA gene expression patterns correlated to either treatment status (baseline vs. treated), to experiencing diarrhoea (no diarrhoea vs. diarrhoea) or to whether specific blood cell type levels correlated to experiencing diarrhoea. All statistical analyses were performed using the SigmaStat 2.03 and SAS 8.02 programs.
as §1
A comparison of the mRNA expression profiles of white blood cells identified eight genes with statistically significant differences between the two groups of subjects 24 hours after epothilone B administration. See, TABLE 3.
Compare, TABLE 8 and TABLE 13.

[4] = test system: drug-sensitive and multidrug-resistant cells overexpressing P-glycoprotein; details: cited from earlier work
[5] = Blood cell, haematocrit and haemoglobin levels after epothilone B treatment by diarrhoea status; type: in vivo, human; details: for Basophils / Eosinophils / Haematocrit / Haemoglobin / Lymphocytes / Monocytes / Neutrophils / Platelets / White Blood Cells: CPG subjects after a single dose, mean ± SEM
Description: as §4
Next, the levels of each blood cell type were compared between the two groups of subjects. Because these values were not determined at the blood draw timepoint, values for the second blood draw timepoint after baseline in cycle 1, corresponding to the first blood draw after the first epothilone B treatment (usually 24 hours after the […]) were used for this comparison. […] See, TABLE 4 and FIGS. 1-2.
Because females generally have lower levels of haematocrit and haemoglobin compared to males, a similar analysis was done by sex. As shown in TABLE 5 and FIGS. 1-2, similar trends in haematocrit and haemoglobin levels were identified for each sex. To determine if these associations exist for the entire trial subject population, the haematocrit and haemoglobin levels for all subjects at the second blood draw after baseline in cycle 1 were investigated.

white blood cells [6] = test: mRNA expression profiling (Affymetrix U95A) of white blood cells, baseline vs. treated; type: in vivo, human
Description: as §2, §3, §4
Analysis of baseline vs. treated mRNA profiles by treatment group. To determine if gene expression in white blood cells was altered by epothilone B at 24 hours after treatment, a comparison between baseline and treated expression profiles was performed.

[7] = CPG subjects, grade 1 diarrhoea
[8] = of twenty CPG subjects, 2.5, 3.0 and 3.6 mg/m^2, irregardless of dose
[9] = 24 hours, any grade of diarrhoea
[10] = CPG Females after a single dose, Diarrhoea (n = 10)
[11] = CPG Females after a single dose, No Diarrhoea (n = 4)
[12] = CPG Males after a single dose, Diarrhoea (n = 5)
[13] = CPG Males after a single dose, No Diarrhoea (n = 1)
[14] = all Females after treatment, Diarrhoea (n = 42)
[15] = all Females after treatment, No Diarrhoea (n = 22)
[16] = all Males after treatment, Diarrhoea (n = 16)
[17] = all Males after treatment, No Diarrhoea (n = 11)
[18] = all subjects after treatment, Diarrhoea any grade (n = 58)
[19] = all subjects after treatment, No Diarrhoea (n = 33)
[20] = 3.6 mg/m^2, 24 hours after treatment

## C/C(=C\c1csc(C)n1)[C@@H]1C[C@@H]2O[C@]2(C)CCC[C@H](C)[C@H](O)[C@@H](C)C(=O)C(C)(C)[C@@H](O)CC(=O)O1 [epothilone B, Epothilone B]
[1]; Rothermel et al. 2003
  dose-limiting toxicity (diarrhoea): dose-limiting toxicity
  myelosuppression: no myelosuppression
[2]; CPG subjects
  mean time of experiencing the first episode of diarrhoea after receiving dose: 37 days
[2]; [7]
  maximum time to first episode of diarrhoea: 304 days
  minimum time to first episode of diarrhoea: 6 days
[2]; clinical pharmacogenetics (CPG) subjects
  mean onset of diarrhoea after the scheduled blood draw: 371 ± 18 days
[2]; of twenty CPG subjects, 2.5, 3.0 and 3.6 mg/m^2
  subjects who experienced grade 3 diarrhoea: three
[2]; [8]
  subjects who did not experience diarrhoea: five
  subjects who experienced any grade of diarrhoea: fifteen
[2]; weekly intravenous infusion over five minutes
  maximum tolerated dose (MTD): 2.5 mg/m^2
White blood cells [3]; [9]
  Fold Change [diarrhoea/no diarrhoea] ALAS2 (37285_at) mRNA: −9.6
  Fold Change [diarrhoea/no diarrhoea] BNIP3L (39436_at) mRNA: −2.8
  Fold Change [diarrhoea/no diarrhoea] BPGM (33759_at) mRNA: −4.9
  Fold Change [diarrhoea/no diarrhoea] CDC34 (1274_s_at) mRNA: −2.2
  Fold Change [diarrhoea/no diarrhoea] IRF5 (477_at) mRNA: 2.9
  Fold Change [diarrhoea/no diarrhoea] SELENBP1 (37405_at) mRNA: −11.3
  Fold Change [diarrhoea/no diarrhoea] SLC4A1 (33336_at) mRNA: −15.3
  Fold Change [diarrhoea/no diarrhoea] Tubulin, beta (297_g_at) mRNA: −3.9
White blood cells [3]; Diarrhoea (any grade) subjects
  Signal Value 297_g_at (Tubulin, beta): 59
  Signal Value 477_at (IRF5): 278
  Signal Value 1274_s_at (CDC34): 128
  Signal Value 33336_at (SLC4A1): 93
  Signal Value 33759_at (BPGM): 70
  Signal Value 37285_at (ALAS2): 448
  Signal Value 37405_at (SELENBP1): 106
  Signal Value 39436_at (BNIP3L): 1476
White blood cells [3]; No Diarrhoea subjects
  Signal Value 297_g_at (Tubulin, beta): 232
  Signal Value 477_at (IRF5): 97
  Signal Value 1274_s_at (CDC34): 278
  Signal Value 33336_at (SLC4A1): 1421 and 1422
  Signal Value 33759_at (BPGM): 344
  Signal Value 37285_at (ALAS2): 4292
  Signal Value 37405_at (SELENBP1): 1200
  Signal Value 39436_at (BNIP3L): 4200
White blood cells [3]; grade 3 diarrhoea
  Fold Change [diarrhoea/no diarrhoea] 297_g_at (Tubulin, beta): −3.0
  Fold Change [diarrhoea/no diarrhoea] 477_at (IRF5): ^f2.7
  Fold Change [diarrhoea/no diarrhoea] 1274_s_at (CDC34): −2.3
  Fold Change [diarrhoea/no diarrhoea] 33336_at (SLC4A1): −15.9
  Fold Change [diarrhoea/no diarrhoea] 33759_at (BPGM): ^f−6.7
  Fold Change [diarrhoea/no diarrhoea] 37285_at (ALAS2): −10.0
  Fold Change [diarrhoea/no diarrhoea] 37405_at (SELENBP1): ^f−10.3
  Fold Change [diarrhoea/no diarrhoea] 39436_at (BNIP3L): −2.8
White blood cells [3]; grade 3 diarrhoea subjects
  Signal Value 297_g_at (Tubulin, beta): 77
  Signal Value 477_at (IRF5): 264
  Signal Value 1274_s_at (CDC34): 123
  Signal Value 33336_at (SLC4A1): 90
  Signal Value 33759_at (BPGM): 51
  Signal Value 37285_at (ALAS2): 428
  Signal Value 37405_at (SELENBP1): 113
  Signal Value 39436_at (BNIP3L): 1489
[4]
  cytotoxicity, drug-sensitive vs. multidrug-resistant cells: equally cytotoxic
[5]; [10]
  HCT: 35.63 ± 0.01%
  HGB: 12.01 ± 0.35 g/dL
[5]; [11]
  HCT: 30.63 ± 0.20%
  HGB: 10.40 ± 0.20 g/dL
[5]; [12]
  HCT: 38.30 ± 1.77%
  HGB: 13.18 ± 0.62 g/dL
[5]; [13]
  HCT: 26.30%
  HGB: 8.70 g/dL
[5]; Diarrhoea (n = 15)
  Basophils: 0.57 ± 0.12%
  Eosinophils: 2.74 ± 0.45%
  Haematocrit: 36.11 ± 0.91%
  Haemoglobin: 12.40 ± 0.33 g/dL
  Lymphocytes: 19.92 ± 1.92%
  Monocytes: 7.88 ± 0.71%
  Neutrophils: 68.81 ± 2.38%
  Platelets: 259.20 ± 23.25 THOU/MM^3
  White Blood Cells: 5.60 ± 0.44 THOU/MM^3
[5]; No Diarrhoea (n = 5)
  Basophils: 0.64 ± 0.22%
  Eosinophils: 3.42 ± 0.73%
  Haematocrit: 29.76 ± 0.87%
  Haemoglobin: 10.06 ± 0.84 g/dL
  Lymphocytes: 14.50 ± 0.74%
  Monocytes: 8.10 ± 0.74%
  Neutrophils: 73.60 ± 2.05%
  Platelets: 334.40 ± 54.80 THOU/MM^3
  White Blood Cells: 5.92 ± 0.87 THOU/MM^3
[5]; [14]
  HCT: 34.34 ± 0.69%
  HGB: 11.56 ± 0.25 g/dL
[5]; [15]
  HCT: 33.17 ± 0.94%
  HGB: 11.13 ± 0.30 g/dL
[5]; [16]
  HCT: 32.84 ± 1.50%
  HGB: 12.46 ± 0.44 g/dL
[5]; [17]
  HCT: 37.48 ± 1.39%
  HGB: 11.06 ± 0.46 g/dL
[5]; [18]
  HCT: 35.21 ± 0.67%
  HGB: 11.81 ± 0.22 g/dL
[5]; [19]
  HCT: 33.06 ± 0.77%
  HGB: 11.11 ± 0.25 g/dL
White blood cells [6]; [20]
  Fold Change [treated/baseline] DAPK1 (40049_at) mRNA: 2.1
  Fold Change [treated/baseline] DR1 (32621_at) mRNA: 1.9
  Fold Change [treated/baseline] JAK1 (1457_at) mRNA: 1.7
  Fold Change [treated/baseline] K-ALPHA-1 (32272_at) mRNA: 1.7
  Fold Change [treated/baseline] MAP4K2 (187_at) mRNA: −1.7
  Fold Change [treated/baseline] RAP1A (1848_at) mRNA: 1.9
  Fold Change [treated/baseline] SURF2 (38210_at) mRNA: 2.4
  Fold Change [treated/baseline] TCFL4 (32578_at) mRNA: −1.6
  Fold Change [treated/baseline] TM9SF1 (38835_at) mRNA: 2.2
  Fold Change [treated/baseline] ZFP36 (40448_at) mRNA: 1.6
  Fold Change [treated/baseline] nuclear transcription factor Y, alpha (33297_at) mRNA: −1.6
White blood cells [6]; 3.6 mg/m^2 treatment, 24 hours
  number of genes with statistically significant changes in expression, treated vs. baseline: eleven
White blood cells [6]; 2.5 and 3.0 mg/m^2 treatments, 24 hours
  genes with statistically significant expression differences, treated vs. baseline: No genes with statistically significant differences were identified
White blood cells [6]; all treated samples combined, 24 hours after treatment
  genes with statistically significant expression differences, treated vs. baseline: no genes with statistically significant differences were identified

## CCc1c2c(nc3ccc(OC(=O)N4CCC(N5CCCCC5)CC4)cc13)-c1cc3c(c(=O)n1C2)COC(=O)[C@]3(O)CC [CPT-11]
[1]; anticancer drugs targeted to inhibit the cell cycle, literature
  drug-induced diarrhoea: Diarrhoea has been reported
